Values joined by “and” are separate entries in the source; they are usually repeats but may differ in a detail not shown here. Identical values can stand only once.
Key:
[1] = wn = mass fraction of the nth substance listed; conditions: 298.1 K, Liquid, Vibrating tube method
[2] = excess molar enthalpy (molar enthalpy of mixing); xn = mol fraction of the nth substance listed; conditions: 130 kPa, Liquid, Calvet calorimetry
[3] = 350.12 K; Liquid; Closed cell (Static) method
[4] = refractive index (Na D-line) (dimensionless); conditions: 298.15 K; 101.33 kPa; Liquid; Standard Abbe refractometry

CC1CCC(=O)O1 (stereo not drawn) [γ-valerolactone] + O
Conditions	excess molar enthalpy	mass density [kg/m3]
[1], 107 kPa, w2 = 0	–	1048.8
[1], 107 kPa, w2 = 0.1004	–	1047
[1], 107 kPa, w2 = 0.2005	–	1044.9
[1], 107 kPa, w2 = 0.3025	–	1041.7
[1], 107 kPa, w2 = 0.4	–	1037.6
[1], 107 kPa, w2 = 0.5	–	1032.9
[1], 107 kPa, w2 = 0.6	–	1027.1
[1], 108 kPa, w2 = 0.6999	–	1021.1
[1], 109 kPa, w2 = 0.7999	–	1013.8
[1], 109 kPa, w2 = 0.8997	–	1005.5
[2], 303.2 K, x2 = 0.097	0.124 kcal/mol	–
[2], 303.2 K, x2 = 0.203	0.197 kcal/mol	–
[2], 303.2 K, x2 = 0.303	0.222 kcal/mol	–
[2], 303.2 K, x2 = 0.4	0.217 kcal/mol	–
[2], 303.2 K, x2 = 0.514	0.194 kcal/mol	–
[2], 303.2 K, x2 = 0.601	0.15 kcal/mol	–
[2], 303.2 K, x2 = 0.7	0.107 kcal/mol	–
[2], 303.2 K, x2 = 0.801	0.0581 kcal/mol	–
[2], 303.2 K, x2 = 0.841	0.0387 kcal/mol	–
[2], 303.2 K, x2 = 0.894	0.0127 kcal/mol	–
[2], 303.2 K, x2 = 0.9	0.0103 kcal/mol	–
[2], 303.2 K, x2 = 0.914	0.00308 kcal/mol and 0.00239 kcal/mol	–
[2], 303.2 K, x2 = 0.93	-0.00437 kcal/mol	–
[2], 303.2 K, x2 = 0.946	-0.0098 kcal/mol	–
[2], 303.2 K, x2 = 0.9815	-0.0182 kcal/mol	–
[2], 303.2 K, x2 = 0.9906	-0.0103 kcal/mol	–
[2], 303.2 K, x2 = 0.9962	-0.00416 kcal/mol	–
[2], 303.2 K, x2 = 0.9981	-0.0021 kcal/mol	–
[2], 322.6 K, x2 = 0.204	0.207 kcal/mol	–
[2], 322.6 K, x2 = 0.401	0.249 kcal/mol	–
[2], 322.6 K, x2 = 0.503	0.232 kcal/mol	–
[2], 322.6 K, x2 = 0.602	0.197 kcal/mol	–
[2], 322.6 K, x2 = 0.7	0.152 kcal/mol	–
[2], 322.6 K, x2 = 0.801	0.097 kcal/mol	–
[2], 322.6 K, x2 = 0.9	0.0402 kcal/mol	–
[2], 322.6 K, x2 = 0.95	0.0116 kcal/mol	–

O [water]
Conditions	refractive index	vapor or sublimation pressure [kPa]
[3]	–	41.9
[4]	1.3325	–
